Source: patent US9107415B2, “2-(substituted-phenyl)-cyclopentane-1,3-dione compounds, and derivatives thereof” (Syngenta Limited, priority 2011, dated 2015)

Key:
Assay type in all cases: in vivo
[1] = tested on: Amaranthus retroflexus (AMARE); assay: Biological Example 1 glasshouse screen, pre-emergence herbicidal activity; details: application rate 250 g/ha, evaluated after 13 days
Experimental: (§1) Seeds of a variety of test species were sown in standard soil in pots. After cultivation for one day (pre-emergence) or after 8 days cultivation (post-emergence) under controlled conditions in a glasshouse (at 24/16°C., day/night; 14 hours light; 65% humidity), the plants were sprayed with an aqueous spray solution derived from the formulation of the “technical”(i.e. unformulated) active ingredient in acetone/water (50:50) solution containing 0.5% Tween 20 (polyoxyethylene sorbitan monolaurate, CAS Registry Number 9005-64-5). The test plants were then grown in a glasshouse under controlled conditions in a glasshouse (at 24/16°C., day/night; 14 hours light; 65% humidity) and watered twice daily. After 13 days for pre- or post-emergence, the test was evaluated visually, and an assessed percentage phytotoxicity score given for each herbicidal application on each plant/weed species (with 100%=total damage to plant; 0%=no damage to plant).
(§2) Test plants: Alopecurus myosuroides (ALOMY), Setaria faberi (SETFA), Echinochloa crus-galli (ECHCG), Solanum nigrum (SOLNI), Amaranthus retroflexus (AMARE) and Ipomoea hederacea (IPOHE). ALOMY, SETFA and ECHCG are grassy monocotyledonous weeds. SOLNI, AMARE and IPOHE are dicotyledonous (broadleaved) weeds.

[2] = tested on: Ipomoea hederacea (IPOHE); assay: as above; details: application rate 250 g/ha, evaluated after 13 days
Experimental: as §1, §2

[3] = tested on: Setaria faberi (SETFA); assay: as above; details: application rate 250 g/ha, evaluated after 13 days
Experimental: as §1, §2

[4] = tested on: Solanum nigrum (SOLNI); assay: as above; details: application rate 250 g/ha, evaluated after 13 days
Experimental: as §1, §2

[5] = tested on: Alopecurus myosuroides (ALOMY); assay: as above; details: 312 h, application rate 250 g/ha, evaluated after 13 days, read-out: ALOMY percentage phytotoxicity
Procedure, shortened: (§3)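 Pot-grown seedlings sprayed 1 day after sowing (pre-emergence) or after 8 days' growth (post-emergence) with active ingredient in acetone/water (50:50) plus 0.5% Tween 20; glasshouse at 24/16°C day/night, 14 h light, 65% humidity. Visual % phytotoxicity (0 = no damage, 100 = total damage) scored 13 days after application.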

[6] = tested on: Echinochloa crus-galli (ECHCG); assay: as above; details: 312 h, application rate 250 g/ha, evaluated after 13 days, read-out: ECHCG percentage phytotoxicity
Procedure, shortened: as §3

[7] = tested on: Amaranthus retroflexus (AMARE); assay: Biological Example 1 glasshouse screen, post-emergence herbicidal activity; details: application rate 250 g/ha, evaluated after 13 days
Experimental: as §1, §2

[8] = tested on: Ipomoea hederacea (IPOHE); assay: as above; details: application rate 250 g/ha, evaluated after 13 days
Experimental: as §1, §2

[9] = tested on: Setaria faberi (SETFA); assay: as above; details: application rate 250 g/ha, evaluated after 13 days
Experimental: as §1, §2

[10] = tested on: Solanum nigrum (SOLNI); assay: as above; details: application rate 250 g/ha, evaluated after 13 days
Experimental: as §1, §2

[11] = tested on: Alopecurus myosuroides (ALOMY); assay: as above; details: 312 h, application rate 250 g/ha, evaluated after 13 days, read-out: ALOMY percentage phytotoxicity
Procedure, shortened: as §3

[12] = tested on: Echinochloa crus-galli (ECHCG); assay: as above; details: 312 h, application rate 250 g/ha, evaluated after 13 days, read-out: ECHCG percentage phytotoxicity
Procedure, shortened: as §3

[13] = tested on: Alopecurus myosuroides (ALOMY); assay: Biological Example 2 post-emergence herbicidal activity (comparative data); details: 312 h, read-out: ALOMY percentage phytotoxicity
Experimental: as §1
(§4) Comparative herbicidal data are given for certain exemplified compounds with 4-(prop-1-ynyl)-2,6-dimethylphenyl or 4-(chloroethynyl)-2,6-dimethylphenyl headgroups, compared to the corresponding comparative compounds with 4-ethynyl-2,6-dimethylphenyl headgroups, as follows.
(§5) Except where specified otherwise, the glasshouse screen for herbicidal activity is substantially the same as that presented in Biological Example 1 hereinabove. The weed abbreviations are as defined in Biological Example 1.

[14] = tested on: Echinochloa crus-galli (ECHCG); assay: as above; details: 312 h, read-out: ECHCG percentage phytotoxicity
Experimental: as §1, §4, §5

[15] = tested on: Setaria faberi (SETFA); assay: as above
Experimental: as §1, §4, §5

[16] = tested on: Avena fatua (AVEFA); assay: Biological Example 1 glasshouse screen, post-emergence herbicidal activity; details: 312 h, application rate 250 g/ha, evaluated after 13 days, read-out: AVEFA percentage phytotoxicity
Procedure, shortened: (§6)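 Pots in a glasshouse (24/16°C day/night, 14 h light, 65% humidity) were sprayed one day after sowing (pre-emergence) or after 8 days (post-emergence), using acetone/water (50:50) with 0.5% Tween 20. Phytotoxicity was scored visually as % damage (0-100) 13 days after application.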

[17] = tested on: Lolium perenne (LOLPE); assay: as above; details: 312 h, application rate 250 g/ha, evaluated after 13 days, read-out: LOLPE percentage phytotoxicity
Procedure, shortened: as §6

[18] = tested on: Alopecurus myosuroides (ALOMY); assay: Biological Example 4A (previously-formulated compounds) post-emergence herbicidal activity on grassy weeds; details: 14 DAA, EC formulation, mean of two
Experimental: (§7) Seeds of a variety of test species are sown in standard soil in pots. After cultivation for 14 days under controlled conditions in a glasshouse (at 22/16°C., day/night; 16 hours light; 65% humidity), the plants are sprayed with the test compounds. The test plants are then grown on under controlled conditions in the glasshouse (at 22/16°C., day/night; 16 hours light; 65% humidity) and are watered twice daily. After 14 days the test is evaluated visually (100%=total damage to plant; 0%=no damage to plant). Post-emergence herbicidal activity (phytotoxicity) data, on certain grassy monocotyledonous weeds and cereal crops in a glasshouse, are measured 14 days after application of the herbicide (14 DAA), inter alia for post-emergence application rates of 30 or 60 g/ha of the test herbicide, with or without 50 g/ha of cloquintocet-mexyl safener applied at substantially the same time as the herbicide.
(§8) Herbicidal activity (phytotoxicity) is evaluated visually, and an assessed percentage phytotoxicity score is given for each herbicidal application on each plant species (with 100%=total damage to plant; 0%=no damage to plant). Two repetitions are made for each experiment and the mean herbicidal activity (phytotoxicity) data is reported.
(§9) Biological Example 4A is used on previously-formulated compounds, typically compounds previously formulated as an emulsifiable concentrates (EC), wherein the EC contains the herbicidal compound under test dissolved in one or more organic solvents, and wherein the EC also contains one or more surfactants or emulsifiers. In the test method, the EC containing the herbicide (plus a cloquintocet-mexyl formulation if this is also present) is generally diluted with water to form an emulsion, and the resulting emulsion is sprayed onto the emerged weed and/or crop plants.
(§10) For the testing of Compounds A-5 and A-6, each of these compounds was separately formulated into an emulsifiable concentrate containing 10% w/w of the herbicidal compound, 9% w/w of castor oil ethoxylate (an emulsifier, present as Emulsogen™EL360), 6% w/w of calcium dodecylbenzenesulfonate (linear) (an emulsifier, present as Nansa™EVM 63B), 3% w/w of tristyrylphenol ethoxylate having 16 moles of ethoxylation per mole of molecule (an emulsifier, present as Soprophor™BSU), 10% w/w of benzyl benzoate (as solvent), 20% w/w of 1-methyl-2-pyrrolidone (as solvent), and the remainder of N-octyl-2-pyrrolidone (as solvent). The solvents and surfactants/emulsifiers were first mixed together, to form a “blank” EC, and the herbicidal compound was then added to and dissolved in this solvent and emulsifier mixture to prepare the emulsifiable concentrate, to give an EC formulation/composition containing approximately 100 g/L of active herbicidal compound.
(§11) In the tests of Compounds A-5 and A-6, the cloquintocet-mexyl was pre-formulated as a formulation/composition containing 10% w/w cloquintocet-mexyl, 6% w/w Emulsogen™ EL360 (as emulsifier), 4% w/w Nansa™EVM 63B (as wetting agent), 1% w/w Drapex™39 (epoxidised soybean oil), 20% w/w 1-methyl-2-pyrrolidone (as solvent), and the remainder as Solvesso™200ND (a mixture of heavy aromatic hydrocarbons, as a solvent).
(§12) Test plants: Avena fatua (AVEFA), Lolium multiflorum (LOLMU), Setaria viridis (SETVI), Poa annua (POAAN), Alopecurus myosuroides (ALOMY). All five of these are grassy monocotyledonous weeds.

[19] = tested on: Avena fatua (AVEFA); assay: as above; details: 14 DAA, EC formulation, mean of two
Experimental: as §7, §8, §9, §10, §11, §12

[20] = tested on: Lolium multiflorum (LOLMU); assay: as above; details: 14 DAA, EC formulation, mean of two
Experimental: as §7, §8, §9, §10, §11, §12

[21] = tested on: Poa annua (POAAN); assay: as above; details: 14 DAA, EC formulation, mean of two
Experimental: as §7, §8, §9, §10, §11, §12

[22] = tested on: Setaria viridis (SETVI); assay: as above; details: 14 DAA, EC formulation, mean of two
Experimental: as §7, §8, §9, §10, §11, §12

[23] = tested on: Spring Barley “Harrington”; assay: Biological Example 4A post-emergence phytotoxicity on cereal crops; details: 14 DAA, EC formulation, mean of two
Experimental: as §7, §8, §9, §10, §11

[24] = tested on: Spring Wheat “Teal”; assay: as above; details: 14 DAA, EC formulation, mean of two
Experimental: as §7, §8, §9, §10, §11

[25] = tested on: Winter Barley “Suzuka”; assay: as above; details: 14 DAA, EC formulation, mean of two
Experimental: as §7, §8, §9, §10, §11

[26] = tested on: Winter Wheat “Hereward”; assay: as above; details: 14 DAA, EC formulation, mean of two
Experimental: as §7, §8, §9, §10, §11

[27] = 30 g/ha, cloquintocet-mexyl 0 g/ha
[28] = 30 g/ha, cloquintocet-mexyl 50 g/ha
[29] = 60 g/ha, cloquintocet-mexyl 0 g/ha
[30] = 60 g/ha, cloquintocet-mexyl 50 g/ha

`Cc1cc(C#CCl)cc(C)c1C1=C(O)CC(Cc2ccccn2)C1=O` (racemic) [Compound A-3, rac-2-(4-Chloroethynyl-2,6-dimethylphenyl)-4-(pyridin-2-ylmethyl)cyclopentane-1,3-dione] gave an AMARE percentage phytotoxicity [1] of 90%, an IPOHE percentage phytotoxicity [2] of 70% and an SEFTA percentage phytotoxicity [3] of 100%. It also gave an SOLNI percentage phytotoxicity [4] of 90%, a pest or weed control at 250 g/ha [5] of 90% and a pest or weed control at 250 g/ha [6] of 100%. For the same compound, the AMARE percentage phytotoxicity [7] was 60%, the IPOHE percentage phytotoxicity [8] was 30% and the SEFTA percentage phytotoxicity [9] was 100%. For the same compound, the SOLNI percentage phytotoxicity [10] was 70%, the pest or weed control at 250 g/ha [11] was 90% and the pest or weed control at 250 g/ha [12] was 100%. It also gave a pest or weed control at 15.625 g/ha ([13]; 15.625 g/ha application rate) of 90%, a pest or weed control at 62.5 g/ha ([13]; 62.5 g/ha application rate) of 90% and a pest or weed control at 15.625 g/ha ([14]; 15.625 g/ha application rate) of 100%. It also gave a pest or weed control at 62.5 g/ha ([14]; 62.5 g/ha application rate) of 100%, an SETFA percentage phytotoxicity ([15]; 15.625 g/ha application rate) of 80% and an SETFA percentage phytotoxicity ([15]; 62.5 g/ha application rate) of 90%.
`CC#Cc1cc(C)c(C2=C(O)C[C@H](Cc3ccccn3)C2=O)c(C)c1` [Compound A-5] gave a pest or weed control at 250 g/ha [11] of 80%, a pest or weed control at 250 g/ha [12] of 90% and a pest or weed control at 250 g/ha [16] of 90%. The pest or weed control at 250 g/ha [17] was 80%, the ALOMY % phytotoxicity [18, 27] was 58% and the ALOMY % phytotoxicity [18, 28] was 63%. It also gave an ALOMY % phytotoxicity [18, 29] of 93%, an ALOMY % phytotoxicity [18, 30] of 98% and an AVEFA % phytotoxicity [19, 27] of 58%. It also gave an AVEFA % phytotoxicity [19, 28] of 23%, an AVEFA % phytotoxicity [19, 29] of 83% and an AVEFA % phytotoxicity [19, 30] of 68%. For the same compound, the LOLMU % phytotoxicity [20, 27] was 93%, the LOLMU % phytotoxicity [20, 28] was 68% and the LOLMU % phytotoxicity [20, 29] was 95%. For the same compound, the LOLMU % phytotoxicity [20, 30] was 99%, the POAAN % phytotoxicity [21, 27] was 0% and the POAAN % phytotoxicity [21, 28] was 13%. The POAAN % phytotoxicity [21, 29] was 18%, the POAAN % phytotoxicity [21, 30] was 5% and the SETVI % phytotoxicity [22, 27] was 80%. The SETVI % phytotoxicity [22, 28] was 85%, the SETVI % phytotoxicity [22, 29] was 98% and the SETVI % phytotoxicity [22, 30] was 95%. For the same compound, the “Spring Barley “Harrington” phytotoxicity (%)” value [23, 27] was 73%, the “Spring Barley “Harrington” phytotoxicity (%)” value [23, 28] was 3% and the “Spring Barley “Harrington” phytotoxicity (%)” value [23, 29] was 88%. For the same compound, the “Spring Barley “Harrington” phytotoxicity (%)” value [23, 30] was 18%, the “Spring Wheat “Teal” phytotoxicity (%)” value [24, 27] was 43% and the “Spring Wheat “Teal” phytotoxicity (%)” value [24, 28] was 0%. The “Spring Wheat “Teal” phytotoxicity (%)” value [24, 29] was 80%, the “Spring Wheat “Teal” phytotoxicity (%)” value [24, 30] was 0% and the “Winter Barley “Suzuka” phytotoxicity (%)” value [25, 27] was 33%. For the same compound, the “Winter Barley “Suzuka” phytotoxicity (%)” value [25, 28] was 0%, the “Winter Barley “Suzuka” phytotoxicity (%)” value [25, 29] was 65% and the “Winter Barley “Suzuka” phytotoxicity (%)” value [25, 30] was 0%. The “Winter Wheat “Hereward” phytotoxicity (%)” value [26, 27] was 40%, the “Winter Wheat “Hereward” phytotoxicity (%)” value [26, 28] was 0% and the “Winter Wheat “Hereward” phytotoxicity (%)” value [26, 29] was 53%. For the same compound, the “Winter Wheat “Hereward” phytotoxicity (%)” value [26, 30] was 0%.
